Values after ≈ are worked out from the molar mass of the structure shown. Read-outs that look alike come from different tables or passages of the source.
Experiments:
[1] = Determination of cytostatic effect on MDBK cells (MTS method); type: cell-based, Bovine; details: bovine, MDBK cells (exponentially growing), 3 days incubation, 50% cytostatic concentration
Description: (§1) Madin-Darbey Bovine Kidney (MDBK) cells were maintained in Dulbecco's modified Eagle medium (DMEM) supplemented with BVDV-free 5% fetal calf serum (DMEME-FCS) at 37° C. in a humidified, 5% CO2 atmosphere. BVDV-1 (strain PE515) was used to assess the antiviral activity in MDBK cells.
(§2) The effect of the drugs on exponentially growing MDBK cells was assessed as follows. Cells were seeded at a density of 5000 cell/well in 96 well plates in MEM medium (Gibco) supplemented with 10% fetal calf serum, 2 mM L-glutamine (Life Technologies) and bicarbonate (Life Technologies). Cells, were cultured for 24 hr after which serial dilutions of the test compounds were added. Cultures were then again further incubated for 3 days after which the effect on cell growth was quantified by means of the MTS method (Promega). The concentration that results in 50% inhibition of cell growth is defined as the 50% cytostatic concentration (CC50)

BVDV-1 (strain PE515) = assay: Anti-BVDV assay (protection of MDBK cell monolayer from virus-induced cytopathic effect, MTS readout); type: cell-based, Bovine Viral Diarrhea virus; details: for EC50: Bovine viral diarrhea virus isolates and strains, MDBK, 120 h, BVDV-1 in MDBK cells, 5 days incubation, concentration that protects 50% of the cell monolayer from virus-induced cytopathic effect; for SI: Selectivity index (ratio of CC50 to EC50): CC50 (MDBK cells) / EC50 (BVDV)
Description: as §1
Ninety-six-well cell culture plates were seeded with MDBK cells in DMEM-FCS so that cells reached 24 hr later confluency. Then medium was removed and serial 5-fold dilutions of the test compounds were added in a total volume of 100 μl, after which the virus inoculum (100 μl) was added to each well. […] Uninfected cells and cells receiving virus without compound were included in each assay plate. After 5 days, medium was removed and 90 μl of DMEM-FCS and 10 μl of MTS/PMS solution (Promega) was added to each well. Following a 2 hr incubation period at 37° C. the optical density of the wells was read at 498 nm in a microplate reader.

MDBK cells = assay: Determination of cytostatic effect on MDBK cells (MTS method); type: cell-based, Bovine; details: exponentially growing MDBK cells, 3 days incubation; 50% cytostatic concentration
Description: as §1, §2

| Structure (SMILES) | melting point [°C] | CC50 at 3 days [1] [µg/mL] | EC50 (BVDV-1 (strain PE515); read-out: EC50) [µg/mL] | SI: Selectivity index (ratio of CC50 to EC50) (BVDV-1 (strain PE515)) | EC50 (BVDV-1 (strain PE515)) [µg/mL] | CC50 (MDBK cells) [µg/mL] |
| --- | --- | --- | --- | --- | --- | --- |
| CCOC(=O)c1cc2c3n(ccc-2n1)CC(CCl)=N3 | 270 to 272 |  |  |  |  |  |
| CCOC(=O)n1c(-c2ccc(OC)cc2)cc2c1ccn1cc(C)nc21 | 158 to 159 |  |  |  |  |  |
| COc1ccc(-c2cc3c4n(ccc-3n2)CC(C)=N4)cc1 | 168 |  |  |  |  |  |
| CCCCc1cc2c3n(ccc-2n1)CC(C)=N3 | 162 |  |  |  |  |  |
| CCOC(=O)c1cc2c3n(ccc-2n1)CC(c1cccc(OC)c1)=N3 | 198 to 200 |  |  |  |  |  |
| CCOC(=O)c1cc2c3n(ccc-2n1)CC(C)=N3 [Compound 7b, Ethyl 2-methylimidazo[1,2-a]pyrrolo[3,2-c]pyridine-8-carboxylate] | 201 to 203 | 65 (≈ 267 µM) | 0.8 (≈ 3.29 µM) | ±81 |  |  |
| CCOC(=O)c1cc2c3n(ccc-2n1)CC(C(F)(F)F)=N3 [Compound 7e, Ethyl 2-trifluoromethylimidazo[1,2-a]pyrrolo[3,2-c]pyridine-8-carboxylate] | 230 to 231 | > 50 |  | ±33 | 1.5 (≈ 5.05 µM) |  |
| CCOC(=O)c1cc2c3n(ccc-2n1)CC(C(C)C)=N3 [Compound 7f, Ethyl 2-isopropylimidazo[1,2-a]pyrrolo[3,2-c]pyridine-8-carboxylate] | 207 to 209 | 22 (≈ 81.1 µM) | 0.6 (≈ 2.21 µM) | ±36 |  |  |
| CCOC(=O)c1cc2c3n(ccc-2n1)CC(C(OCC)OCC)=N3 [Compound 7h, Ethyl 2-diethoxymethylimidazo[1,2-a]pyrrolo[3,2-c]pyridine-8-carboxylate] | 242 to 244 | 22 (≈ 66.4 µM) | 3 (≈ 9.05 µM) | ±7 |  |  |
| CCOC(=O)c1cc2c3n(ccc-2n1)CC(Br)=N3 [Compound 7i, Ethyl 2-bromoimidazo[1,2-a]pyrrolo[3,2-c]pyridine-8-carboxylate] |  | > 50 | 1.5 (≈ 4.87 µM) | >33 |  |  |
| CCOC(=O)c1cc2c(ccn3cc(CN(C)C)nc23)[nH]1 [Compound 9, Ethyl 2-N,N dimethylaminomethylimidazo[1,2-a]pyrrolo[3,2-c]pyridine-8-carboxylate] |  |  |  |  | 3 (≈ 10.5 µM) |  |
| CCOC(=O)c1cc2c3n(ccc-2n1)CC(CO)=N3 [Compound 11, Ethyl 2-hydroxymethylimidazo[1,2-a]pyrrolo[3,2-c]pyridine-8-carboxylate] | 227 to 229 | 87 (≈ 336 µM) | 9 (≈ 34.7 µM) | ±10 |  |  |
| CC1=Nc2c3cc(C(=O)O)nc-3ccn2C1 [Compound 15, 2-Methylimidazo[1,2-a]pyrrolo[3,2-c]pyridine-8-carboxylic acid] |  | > 100 | 0.5 (≈ 2.32 µM) |  |  | >100 |
| CCOC(=O)n1c(-c2ccc(F)cc2)cc2c1ccn1cc(C)nc21 [Compound 26b, Ethyl 8-(4-fluorophenyl)-2-methylimidazo[1,2-a]pyrrolo[3,2-c]pyridine-7-carboxylate] | 175 | 7.9 (≈ 23.4 µM) | 1.25 (≈ 3.71 µM) | ±6 |  |  |
| CC1=Nc2c3cc(-c4ccc(F)cc4)nc-3ccn2C1 [Compound 27b, 8-(4-fluorophenyl)-2-methylimidazo[1,2-a]pyrrolo[3,2-c]pyridine] |  | 47.5 (≈ 179 µM) | 1.27 (≈ 4.79 µM) | ±37 |  |  |
